pIC50: −log10 of the molar value.
Key:
Cholinesterase [1] = target: Cholinesterase (Equus caballus, UniProt P81908); test: Inhibition of equine serum BChE using butyrylthiocholine chloride as substrate incubated for 15 mins by Ellman's method
[2] = Selectivity index, ratio of IC50 for equine serum BChE to IC50 for electric eel AChE
Acetylcholinesterase [3] = target: T1, Acetylcholinesterase (Rattus norvegicus, UniProt P37136); test: Inhibition of rat cortex homogenate AChE using acetylthiocholine chloride as substrate incubated for 15 mins by Ellman's method
T1 sequence (P37136 whole entry): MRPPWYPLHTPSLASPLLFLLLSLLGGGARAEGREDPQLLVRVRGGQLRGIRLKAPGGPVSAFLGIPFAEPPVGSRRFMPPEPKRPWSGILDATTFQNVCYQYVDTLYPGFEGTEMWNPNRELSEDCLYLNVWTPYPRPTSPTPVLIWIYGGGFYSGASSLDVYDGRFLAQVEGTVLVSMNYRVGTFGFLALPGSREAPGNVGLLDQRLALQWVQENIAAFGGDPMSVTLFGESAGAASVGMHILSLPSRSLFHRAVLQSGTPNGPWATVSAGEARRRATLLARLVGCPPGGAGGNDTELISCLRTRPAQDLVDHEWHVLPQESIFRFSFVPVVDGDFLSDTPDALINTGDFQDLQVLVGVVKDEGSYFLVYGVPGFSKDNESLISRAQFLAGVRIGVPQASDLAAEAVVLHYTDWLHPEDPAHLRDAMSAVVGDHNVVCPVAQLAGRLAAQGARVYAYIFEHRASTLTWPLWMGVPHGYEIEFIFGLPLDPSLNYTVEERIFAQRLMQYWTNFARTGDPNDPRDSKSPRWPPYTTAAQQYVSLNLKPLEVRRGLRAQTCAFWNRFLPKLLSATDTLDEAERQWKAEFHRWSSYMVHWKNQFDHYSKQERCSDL

Butyrylcholinesterase = Butyrylcholinesterase (Rattus norvegicus, UniProt Q9JKC1); test: Inhibition of rat serum BChE using butyrylthiocholine chloride as substrate incubated for 15 mins by Ellman's method
[4] = target: T2, Amine oxidase [flavin-containing] B (Homo sapiens, UniProt P27338); test: Inhibition of human recombinant MAO-B expressed in baculovirus infected BTI insect cells using kynuramine as substrate after 30 mins by fluorescence assay; format: cell-based
T2 sequence (P27338 whole entry): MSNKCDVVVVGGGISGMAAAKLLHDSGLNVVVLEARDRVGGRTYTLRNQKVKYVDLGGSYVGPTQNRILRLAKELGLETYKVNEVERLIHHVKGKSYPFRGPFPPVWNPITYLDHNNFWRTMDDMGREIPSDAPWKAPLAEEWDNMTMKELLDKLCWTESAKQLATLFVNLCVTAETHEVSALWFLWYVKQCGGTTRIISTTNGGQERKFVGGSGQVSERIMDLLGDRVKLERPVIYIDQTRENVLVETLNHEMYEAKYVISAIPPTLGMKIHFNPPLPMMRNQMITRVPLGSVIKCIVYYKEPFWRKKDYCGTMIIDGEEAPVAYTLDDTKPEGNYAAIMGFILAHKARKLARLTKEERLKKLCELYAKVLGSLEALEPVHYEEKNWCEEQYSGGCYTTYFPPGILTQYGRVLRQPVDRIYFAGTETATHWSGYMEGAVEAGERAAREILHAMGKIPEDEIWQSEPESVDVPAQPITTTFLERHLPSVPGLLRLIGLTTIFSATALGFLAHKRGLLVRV

Acetylcholinesterase [5] = target: Acetylcholinesterase (Electrophorus electricus, UniProt O42275); test: Inhibition of electric eel AChE using acetylthiocholine chloride as substrate incubated for 15 mins by Ellman's method
[6] = target: T3, Amine oxidase [flavin-containing] A (Homo sapiens, UniProt P21397); test: Inhibition of human recombinant MAO-A expressed in baculovirus infected BTI insect cells at 20 uM using kynuramine as substrate after 30 mins by fluorescence assay relative to control; conditions: 0.5 h
T3 sequence (P21397 whole entry): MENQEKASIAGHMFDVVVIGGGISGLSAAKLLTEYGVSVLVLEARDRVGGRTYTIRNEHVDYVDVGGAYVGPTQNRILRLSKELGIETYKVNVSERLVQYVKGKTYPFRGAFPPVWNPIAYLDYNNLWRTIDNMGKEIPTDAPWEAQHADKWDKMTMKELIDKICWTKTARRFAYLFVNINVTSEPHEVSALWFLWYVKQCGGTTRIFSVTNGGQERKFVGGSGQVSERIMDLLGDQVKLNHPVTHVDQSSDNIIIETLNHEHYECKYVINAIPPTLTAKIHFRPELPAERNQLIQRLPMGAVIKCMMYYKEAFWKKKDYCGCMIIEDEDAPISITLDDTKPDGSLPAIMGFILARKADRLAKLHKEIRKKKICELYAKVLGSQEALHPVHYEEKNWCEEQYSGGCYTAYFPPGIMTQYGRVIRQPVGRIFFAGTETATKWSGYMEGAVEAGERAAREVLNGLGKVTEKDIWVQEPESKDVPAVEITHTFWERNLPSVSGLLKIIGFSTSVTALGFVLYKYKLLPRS

Cholinesterase [7] = target: Cholinesterase (Homo sapiens, UniProt P06276); test: Inhibition of human serum BChE using butyrylthiocholine chloride as substrate incubated for 15 mins by Ellman's method
Acetylcholinesterase [8] = target: Acetylcholinesterase (Homo sapiens, UniProt P22303); test: Inhibition of human erythrocyte AChE using acetylthiocholine chloride as substrate incubated for 15 mins by Ellman's method
Chain of Acetylcholinesterase (Homo sapiens, UniProt P22303) (P22303 whole entry): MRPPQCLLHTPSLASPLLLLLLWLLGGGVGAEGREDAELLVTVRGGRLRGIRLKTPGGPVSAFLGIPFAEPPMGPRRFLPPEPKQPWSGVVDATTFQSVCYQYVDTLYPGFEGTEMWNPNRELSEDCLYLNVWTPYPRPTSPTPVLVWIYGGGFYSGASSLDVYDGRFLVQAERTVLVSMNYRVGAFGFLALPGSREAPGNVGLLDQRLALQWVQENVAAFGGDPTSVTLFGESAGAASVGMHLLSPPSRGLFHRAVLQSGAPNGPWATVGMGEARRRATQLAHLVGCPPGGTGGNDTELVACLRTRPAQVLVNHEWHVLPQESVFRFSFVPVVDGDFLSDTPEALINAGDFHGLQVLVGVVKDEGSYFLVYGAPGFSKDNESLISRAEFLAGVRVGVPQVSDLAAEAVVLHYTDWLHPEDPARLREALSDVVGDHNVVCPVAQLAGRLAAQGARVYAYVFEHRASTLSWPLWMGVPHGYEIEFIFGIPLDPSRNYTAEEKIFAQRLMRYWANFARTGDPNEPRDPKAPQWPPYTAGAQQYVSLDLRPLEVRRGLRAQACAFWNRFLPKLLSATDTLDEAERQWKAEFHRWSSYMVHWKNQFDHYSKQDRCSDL

Chain of Cholinesterase (Homo sapiens, UniProt P06276) (P06276 whole entry): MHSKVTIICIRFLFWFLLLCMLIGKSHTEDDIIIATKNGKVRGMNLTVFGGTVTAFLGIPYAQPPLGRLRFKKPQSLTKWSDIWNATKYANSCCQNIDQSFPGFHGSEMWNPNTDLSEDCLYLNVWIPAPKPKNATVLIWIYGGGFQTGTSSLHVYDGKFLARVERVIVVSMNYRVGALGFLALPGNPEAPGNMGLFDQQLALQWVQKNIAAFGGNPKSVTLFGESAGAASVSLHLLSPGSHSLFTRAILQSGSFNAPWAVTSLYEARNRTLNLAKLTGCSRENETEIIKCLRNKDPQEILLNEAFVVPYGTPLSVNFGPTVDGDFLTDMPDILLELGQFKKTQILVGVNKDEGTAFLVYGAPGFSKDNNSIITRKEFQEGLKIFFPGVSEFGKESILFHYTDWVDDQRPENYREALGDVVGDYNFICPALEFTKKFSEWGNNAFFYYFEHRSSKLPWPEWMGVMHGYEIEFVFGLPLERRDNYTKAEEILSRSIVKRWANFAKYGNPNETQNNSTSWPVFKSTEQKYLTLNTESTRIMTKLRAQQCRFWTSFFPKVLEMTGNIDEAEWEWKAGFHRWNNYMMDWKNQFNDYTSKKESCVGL
Chain of Cholinesterase (Equus caballus, UniProt P81908) (P81908 whole entry): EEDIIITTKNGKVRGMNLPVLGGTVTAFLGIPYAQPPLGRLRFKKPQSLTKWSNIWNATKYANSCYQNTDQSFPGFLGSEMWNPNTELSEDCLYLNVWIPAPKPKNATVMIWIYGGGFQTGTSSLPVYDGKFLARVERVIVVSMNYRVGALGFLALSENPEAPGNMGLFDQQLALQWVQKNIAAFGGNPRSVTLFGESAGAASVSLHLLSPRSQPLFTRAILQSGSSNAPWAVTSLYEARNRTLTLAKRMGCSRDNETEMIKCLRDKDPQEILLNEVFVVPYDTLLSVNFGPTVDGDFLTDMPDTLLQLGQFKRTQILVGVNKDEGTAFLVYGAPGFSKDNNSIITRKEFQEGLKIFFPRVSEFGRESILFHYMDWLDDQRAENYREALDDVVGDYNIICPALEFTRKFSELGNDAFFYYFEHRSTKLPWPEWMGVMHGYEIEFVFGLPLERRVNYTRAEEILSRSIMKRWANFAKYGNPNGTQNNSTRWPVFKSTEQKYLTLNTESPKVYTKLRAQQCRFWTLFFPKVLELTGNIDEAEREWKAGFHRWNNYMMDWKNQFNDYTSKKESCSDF
Chain of Butyrylcholinesterase (Q9JKC1 whole entry): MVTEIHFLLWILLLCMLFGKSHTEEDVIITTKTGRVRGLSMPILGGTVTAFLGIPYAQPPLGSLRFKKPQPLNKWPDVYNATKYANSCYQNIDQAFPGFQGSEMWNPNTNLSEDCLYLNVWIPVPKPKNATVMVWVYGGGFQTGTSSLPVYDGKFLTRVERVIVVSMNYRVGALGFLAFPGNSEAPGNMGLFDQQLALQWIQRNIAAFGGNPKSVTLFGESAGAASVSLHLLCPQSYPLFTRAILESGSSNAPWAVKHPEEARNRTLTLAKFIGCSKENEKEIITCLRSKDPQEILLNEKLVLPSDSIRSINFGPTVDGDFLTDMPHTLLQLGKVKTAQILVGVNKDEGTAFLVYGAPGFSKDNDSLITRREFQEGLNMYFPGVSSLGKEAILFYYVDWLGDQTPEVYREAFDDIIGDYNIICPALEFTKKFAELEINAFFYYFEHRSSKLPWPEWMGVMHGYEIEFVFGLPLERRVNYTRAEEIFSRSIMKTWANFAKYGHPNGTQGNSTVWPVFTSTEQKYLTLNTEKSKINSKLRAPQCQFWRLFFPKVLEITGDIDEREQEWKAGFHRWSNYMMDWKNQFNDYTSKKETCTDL
Chain of Acetylcholinesterase (Electrophorus electricus, UniProt O42275) (O42275 whole entry): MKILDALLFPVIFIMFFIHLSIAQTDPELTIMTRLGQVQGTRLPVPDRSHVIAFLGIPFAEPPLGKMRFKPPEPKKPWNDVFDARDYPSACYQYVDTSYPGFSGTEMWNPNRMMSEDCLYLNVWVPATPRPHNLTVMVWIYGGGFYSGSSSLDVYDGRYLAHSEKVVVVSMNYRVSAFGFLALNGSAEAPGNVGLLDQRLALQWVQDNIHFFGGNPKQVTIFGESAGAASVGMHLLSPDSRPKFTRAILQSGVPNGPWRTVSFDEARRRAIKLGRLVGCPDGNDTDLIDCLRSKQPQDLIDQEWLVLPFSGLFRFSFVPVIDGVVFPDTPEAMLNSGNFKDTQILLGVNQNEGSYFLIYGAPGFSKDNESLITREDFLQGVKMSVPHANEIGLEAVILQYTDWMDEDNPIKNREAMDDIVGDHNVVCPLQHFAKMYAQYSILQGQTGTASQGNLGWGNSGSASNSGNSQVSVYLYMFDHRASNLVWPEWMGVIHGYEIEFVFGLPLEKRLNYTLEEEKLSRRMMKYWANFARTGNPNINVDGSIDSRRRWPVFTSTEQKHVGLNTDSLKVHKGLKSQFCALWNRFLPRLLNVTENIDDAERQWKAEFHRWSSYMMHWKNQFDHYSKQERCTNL

SMILES | pIC50 (Cholinesterase [1]) | Ratio IC50 [2] | pIC50 (Acetylcholinesterase [3]) | pIC50 (Butyrylcholinesterase) | pIC50 [4] | pIC50 (Acetylcholinesterase [5]) | inhibition at 20 µM [6] | pIC50 (Cholinesterase [7]) | pIC50 (Acetylcholinesterase [8])
C#CCN(CCCCN1C(=O)c2ccccc2C1=O)Cc1ccccc1 | 4.90 | 2.6 | 5.40 | 4.49 | 5.19 | 5.31 | < 5% |  | 
C#CCN(CCCN1C(=O)c2ccccc2C1=O)Cc1ccccc1OC | 5.24 | 0.43 | 5.39 | 5.28 | 5.12 | 4.87 | < 5% |  | 
CCN(CCCN1C(=O)c2ccccc2C1=O)Cc1ccccc1 | 5.03 | 2.8 | 5.96 | 4.88 | 5.16 | 5.48 | < 5% |  | 
CCN(CCN1C(=O)c2ccccc2C1=O)Cc1ccccc1OC | 4.74 | 5.1 | 6.05 | 4.80 | 5.16 | 5.44 | < 5% |  | 
C#CCN(CCCCN1C(=O)c2ccccc2C1=O)Cc1ccccc1OC | 5.08 | 2.4 | 5.29 | 4.41 | 5.25 | 5.47 | < 5% |  | 
CCN(CCCN1C(=O)c2ccccc2C1=O)Cc1ccccc1OC | 4.95 | 12.6 | 6.40 | 5.03 | 5.33 | 6.05 | < 5% | 4.84 | 5.35
COc1ccccc1CN(C)CCCCN1C(=O)c2ccccc2C1=O | 5.10 | 6.1 | 5.43 | 5.04 | 4.94 | 5.89 | < 5% |  | 
CCN(CCCCN1C(=O)c2ccccc2C1=O)Cc1ccccc1 | 5.01 | 22.8 | 6.22 | 4.88 | 5.16 | 6.37 | < 5% | 4.82 | 6.17
CN(CCCCN1C(=O)c2ccccc2C1=O)Cc1ccccc1 | 4.84 | 5.6 | 5.37 | 5.08 | 5.38 | 5.59 | < 5% |  | 
CCN(CCCCCCN1C(=O)c2ccccc2C1=O)Cc1ccccc1OC | 5.14 | 19.2 | 6.48 | 4.83 | 4.93 | 6.42 | < 5% | 5.05 | 6.23
COc1ccccc1CN(C)CCN1C(=O)c2ccccc2C1=O | 4.92 | 1.9 | 4.86 | 4.83 | 5.08 | 5.21 | < 5% |  | 
C#CCN(CCCCCCN1C(=O)c2ccccc2C1=O)Cc1ccccc1OC | 4.87 | 2.7 | 5.37 | 4.65 | 5.04 | 5.31 | < 5% |  | 
CN(CCCN1C(=O)c2ccccc2C1=O)Cc1ccccc1 | 4.64 | 2.8 | 4.89 | 4.64 | 5.21 | 5.09 | < 5% |  | 
CN(CCN1C(=O)c2ccccc2C1=O)Cc1ccccc1 | 4.65 | 1.4 | 4.80 | 4.58 | 5.14 | 4.80 | < 5% |  | 

From ChEMBL document CHEMBL4043275, “Design, synthesis and biological evaluation of phthalimide-alkylamine derivatives as balanced multifunctional cholinesterase and monoamine oxidase-B inhibitors for the treatment of Alzheimer's disease” (Bioorg Med Chem Lett, 2017)
